The values below come from article PMC11056994, “Potentiating Activity of GmhA Inhibitors on Gram-Negative Bacteria” (Journal of Medicinal Chemistry, 2024).

For data set [1], the system named is E. coli C7 (018:K1:H7) LPS biosynthesis. The data set is described as follows: Inhibition of bacterial LPS biosynthesis (silver-stained LPS SDS-PAGE). It counts as cell-based. The settings on record: Escherichia coli. As for the experimental part: The compounds to be tested were prepared in deionized water/DMSO (50/50) solutions and added (25 μL) in sterile culture microtubes. The test bacterial isolate was isolated on tryptic soy agar (TSA) overnight. Isolated colonies were cultured in 10 mL of LB medium at 37 °C up to an OD of typically 0.15. These exponentially growing bacteria were finally diluted to 5 × 10^5 cfu/mL and added in each well (225 μL) for incubation with the compounds at 37 °C for approximately 5 h, up to an OD of ≈0.2–0.4. Some test compounds, e.g., phospho-sugars are actively transported into the bacterial cytosol via the phospho-sugar transporter UhpT (Figure S3). 2.5 μL portion of a 10 mM water solution of glucose-6-phosphate (G6P, 100 μM final concentration, from Sigma) was added in the culture tube in order to induce UhpT expression. LPS extraction: Bacterial cultures were normalized via OD determination, pelleted, and washed with 1 mL of phosphate-buffered-saline (PBS). The pellets were then denatured for 10 min at 95–100 °C in 50 μL of 0.2% sodium dodecyl sulfate (SDS), β-mercaptoethanol 1%, glycerol 36%, Tris 30 mM, pH 7.4, and bromophenol blue 0.001%. Samples were cooled down to room temperature, supplemented with 1.5 μL of proteinase K at 20 mg/mL, incubated for 1 h at 55 °C, and centrifuged for 30 min at 13,000 rpm at 25 °C. The resulting supernatant, containing LPS, was finally analyzed by SDS-PAGE electrophoresis. LPS SDS-PAGE electrophoresis: Polyacrylamide gels (16%/4% acrylamide for separation and concentration, respectively) were prepared, loaded with 8 μL of LPS extracts, and migrated. Silver staining: Gels were incubated overnight in 5% acetic acid/40% ethanol/deionized water, treated by 1% periodic acid/5% acetic acid for 15 min, washed 4 times for 10 min in deionized water, and finally incubated for 18 min in the dark in a silver nitrate solution composed of 56 mL of 0.1 M NaOH (56 mL), 33% aq ammonia (4 mL), 5% AgNO3 (45 mL), and deionized water (195 mL). Gels were then washed extensively in deionized water for 30 min and incubated for 10–15 min (up to LPS band appearance) in the revelation mix composed of 300 mL of deionized water (300 mL), 36.5% formaldehyde (0.3 mL, Fluka), and 2.3 M citric acid (0.1 mL). The revelation was stopped by incubating the gels in 10% acetic acid for 5 min. Gels were finally washed in deionized water, numerized with a Samsung PL51 camera, and analyzed by ImageJ software. The percentage of inhibition of LPS heptosylation was defined as the relative area of the Re-LPS band compared to the cumulated areas of Re-LPS and Core-LPS bands.

The subject of data set [2] is E. coli C7. The data set is described as follows: MIC of the compounds alone on E. coli C7. It counts as cell-based. As for the experimental part:
Then, we investigated the cytotoxicity and the ability of such inhibitors to potentiate the antimicrobial activity of macrolide and rifamycin antibiotics.
(§1) The compound to be tested was diluted in 50 mM HEPES buffer (pH 7.4) from 10 mM stock solution in DMSO. Five microliters of compound dilution or buffer were distributed in a sterile clear round-bottom 96-well polystyrene microplate (Corning). Five microliters of serial 2-fold dilutions of reference antibiotics [Erythromycin (Fluka), Rifampicin (Fluka)] in DMSO were added. An exponentially growing preculture of E. coli C7 (O18:K1:H7) in LB was diluted to 10^4 cfu/mL and supplemented with 100 μM G6P, and 90 μL of this suspension were added to the microplates. After overnight incubation at 37 °C, the MIC of the antibiotics were determined for each test compound concentration as the lowest antibiotic concentration for which no bacterial pellet is visible without magnification.

The next data set is described as follows: HepG2 cytotoxicity. It counts as cell-based. As to conditions: human, n = 2. As for the experimental part:
HepG2 cells (LGC Promochem, ref HB-8065) in EMEM medium supplemented with fetal bovine serum (10%), Ampicillin (100 mg/L), and Streptomycin (100 mg/L) were plated on cell culture plates (Costar 3596, 2 × 10^4 cells/well) and incubated overnight at 37 °C in 5% CO2. The culture medium was then aspirated and replaced by supplemented EMEM (210 μL including 2% DMSO) containing dilutions of compounds. Plates were incubated overnight at 37 °C in 5% CO2. Cell viability was determined by the Celltiter Aqueous One Cell Proliferation Assay (G3581–80, Promega) according to the manufacturer’s recommendations, using a Multiskan absorption reader (490 nm).

Data set [3] has as its system E. coli C7. The data set is described as follows: Sensitization to killing by the complement of human serum. It counts as cell-based. The settings on record: E. coli C7 grown 5 h with 0.3 and 1 mM compound 24; in 30 min. As for the experimental part:
The E. coli C7 wild type and gmhA-deleted strains were isolated from TSA plates and grown overnight in 10 mL of LB broth at 35 °C. […] After 5 h of incubation under shaking at 37 °C, the bacterial inoculum was adjusted to 10^5 cfu/mL in 20% LB broth mixed with 80% human serum (Biopredic) and filtered on 0.45 μm pore size membranes and used as such, or further heated for 30 min at 56 °C for complement deactivation. A volume of 250 μL of each condition was finally incubated at 37 °C in microtubes, and aliquots of 10 μL were sampled at 0, 15, 30, 60, 120, and 180 min for bacterial enumeration in duplicate.

For data set [4], the system named is E. coli C7 (O18:K1:H7). Description: MIC determination of antibiotics combined with a GmhA inhibitor. The settings on record: 17 at 27 mg/L (100 μM), glucose-6-phosphate 100 μM, E. coli C7. It counts as cell-based. As for the experimental part: as §1
Data set [5] deals with E. coli C7 (O18:K1:H7). The data set is described as follows: Time-kill kinetics of rifampicin in combination with compound 17. In kind it is cell-based. As for the experimental part: Rifampicin (Fluka) was diluted in DMSO, and the compound to be tested was diluted in water from 50 mM stock solution in 50 mM HEPES buffer, pH 7.4. Ten microliter of DMSO was distributed in sterile 1.5 mL polypropylene microtubes (Eppendorf). 2.5 μL of compound dilution or water, 2.5 μL of Rifampicin or DMSO, 2.5 μL of 10 mM G6P in water (100 μM final concentration), and 230 μL of LB were added to the microtubes. E. coli C7 (O18:K1:H7) was grown in 5 mL of LB broth at 37 °C until mid-log phase. The suspension was then diluted in LB to obtain a 100× inoculum of 5 × 10^7 cfu/mL, 2.5 μL of which were added to each microtube (5 × 10^5 cfu/mL final inoculum). The microtubes were incubated at 37 °C, and aliquots of 10 μL were sampled at 0, 2, 4, 6, 8, and 24 h for bacterial enumeration in duplicate.

Data set [6] has as its system E. coli S1 LPS heptosylation. The data set is described as follows: LPS heptosylation inhibition in clinical isolate E. coli S1. In kind it is cell-based. The settings on record: Escherichia coli; E. coli S1, ESBL; 100 μM glucose-6-phosphate; n = 1. As for the experimental part:
(§2) Compound 17 was also tested against clinical isolates of E. coli,[…], and K. pneumoniae for its ability to block LPS heptosylation (EC50). As detailed in Table 3, 17 in the presence of the UhpT inducer glucose-6-phosphate (100 μM) is a specific inhibitor of LPS heptosylation against various strains, including multiresistant clinical isolates expressing ESBL, AmpC, or NDM-1.
(§3) The compounds to be tested were prepared in deionized water/DMSO (50/50) solutions and added (25 μL) in sterile culture microtubes. The test bacterial isolate was isolated on tryptic soy agar (TSA) overnight. Isolated colonies were cultured in 10 mL of LB medium at 37 °C up to an OD of typically 0.15. These exponentially growing bacteria were finally diluted to 5 × 10^5 cfu/mL and added in each well (225 μL) for incubation with the compounds at 37 °C for approximately 5 h, up to an OD of ≈0.2–0.4. Some test compounds, e.g., phospho-sugars are actively transported into the bacterial cytosol via the phospho-sugar transporter UhpT (Figure S3). […] The resulting supernatant, containing LPS, was finally analyzed by SDS-PAGE electrophoresis. […] Gels were finally washed in deionized water, numerized with a Samsung PL51 camera, and analyzed by ImageJ software. […]

In data set [7] the test system is E. cloacae S2 LPS heptosylation. Description: LPS heptosylation inhibition in clinical isolate E. cloacae S2. It counts as cell-based. As to conditions: Enterobacter cloacae; E. cloacae S2, AmpC; 100 μM glucose-6-phosphate; n = 1. As for the experimental part:
as §2, §3

Data set [8] has as its system K. pneumoniae S3 LPS heptosylation. Description: LPS heptosylation inhibition in clinical isolate K. pneumoniae S3. In kind it is cell-based. The settings on record: Klebsiella pneumoniae, read-out: EC50 of LPS heptosylation. As for the experimental part: as §2, §3
The next data set deals with GmhA. More on the design: method as in PMID 21922563. The settings on record: cited from earlier work.
The subject of a further data set is wild-type E. coli strain. More on the design: method as in PMID 21922563. As to conditions: cited from earlier work.
Setting [9] is: compound alone, n = 2, read-out: MIC E. coli C7.

Read-outs that look alike come from different tables or passages of the source. Bounds are passed on as bounds.

What is called EC50 is the concentration needed to bring the measured effect to its halfway point. A word on the MIC: it is the lowest concentration that inhibits growth of the organism. As a reminder, the CC50 is the concentration giving 50% cytotoxicity. Read a high CC50 as lower toxicity to the cells. With `O=CN(O)C[C@H](O)[C@H](O)[C@H](O)CCP(=O)([O-])O.[Na+]` [Compound 24], the EC50 in data set [1] worked out at 22 ± 4 µM. Also, the MIC with E. coli C7 [2] (Escherichia coli, C7, read-out: MIC E. coli C7) is greater than 1000 µM; in the data set with E. coli C7 [2] (setting [9]), greater than 1000 µM. The molecule further displayed a CC50 in “HepG2 cytotoxicity” greater than 1000 µM. Besides, the “reduction of the bacterial load in 80% human serum” value in the data set on E. coli C7 [3] came out at 3 log.
Take `O=CN(O)C[C@H](O)[C@H](O)[C@H](O)COP(=O)(O)O` [Compound 17]: the EC50 in [1] (E. coli C7 LPS biosynthesis by SDS-PAGE, mean ± SD of 3 experiments for 17 and 24, n = 1 for others, read-out: EC50) is 20 ± 3 µM; in data set [6], 21 µM; in data set [7], 18 µM; in data set [8], 21 µM. Also, the MIC with E. coli C7 [2] (Escherichia coli, C7, compound alone, n = 2, read-out: MIC E. coli C7) is greater than 1000 µM; with E. coli C7 [2] (setting [9]), greater than 1000 µM. In “HepG2 cytotoxicity” (HepG2 cells), this molecule gave a CC50 greater than 1000 µM. The potentiation of erythromycin in the data set with E. coli C7 (O18:K1:H7) [4] is reported as 32 fold. Further, in the data set on E. coli C7 (O18:K1:H7) [4], the potentiation of rifampicin came to 16 fold. Besides, in the data set with E. coli C7 (O18:K1:H7) [5] (17 300 μM alone or rifampicin 1 mg/L alone), the “effect on bacterial growth, compound alone” value is reported as “did not alter at all the bacterial growth”. Also, the “bacterial counts at 24 h” value in the data set on E. coli C7 (O18:K1:H7) [5] (17 (300 μM) combined with rifampicin (1 mg/L), 24 h) is “no detectable counts”. Moreover, the “reduction of the bacterial inoculum” value with E. coli C7 (O18:K1:H7) [5] (17 (300 μM) combined with rifampicin (1 mg/L), in less than 6 h) is recorded as “more than 3 log”.
Take `COC1O[C@H]([C@H](O)COP(=O)(O)O)[C@@H](O)[C@H](O)[C@H]1O` (stereo partly drawn) [methyl 7-O-phosphoryl-D-glycero-D-gluco-heptopyranoside]: the “IC50 values (in words)” value in the data set with GmhA is on record as “low micromolar range”. Further, in the data set on wild-type E. coli strain, the “heptosylation inhibition at 1 mM” value is “too high to demonstrate heptosylation inhibition”.
